Experimental data from the supplement of paper PMC10307832.

What was measured:
Test in all cases: relative viability (nuclei count vs DMSO), 5 days (fraction); higher = more cells survive
NCI-H520 = system: NCI-H520
Outline: (§1)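 Values are medians from duplicate plates. Each reflects relative viability, defined as the nuclei count of treated wells over that of vehicle wells. Lung cancer cell lines in 1536-well plates were pin-tool dosed one day after seeding with one drug alone or with a fixed anchor-drug dose plus five library-drug doses (not always all listed) in √10 steps, then fixed, stained and imaged at 4× after 5 days.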

RERF-LC-KJ = system: RERF-LC-KJ
Outline: as §1

A549 = system: A549
Outline: as §1

Calu-6 = system: Calu-6
Outline: as §1

IA-LM = system: IA-LM
Outline: as §1

NCI-H1651 = system: NCI-H1651
Outline: as §1

NCI-H1703 = system: NCI-H1703
Outline: as §1

EBC-1 = system: EBC-1
Outline: as §1

NCI-H1299 = system: NCI-H1299
Outline: as §1

Q: How did the relative viability (NCI-H520; first compound 0.04 µM) turn out when `O=C(O)c1ccc(-c2c[nH]c3ncc(-c4ccccc4)cc23)cc1C1CCCC1` + Cc1nc(NC(=O)N2CCC[C@H]2C(N)=O)sc1-c1ccnc(C(C)(C)C(F)(F)F)c1 [Alpelisib] (partner 2 µM) was run?
A: 0.836

Q: And the relative viability (NCI-H520; first compound 0.1265 µM)?
A: 1.09

Q: And the relative viability (NCI-H520; first compound 0.4 µM)?
A: 0.866

Q: And the relative viability (NCI-H520; first compound 1.265 µM)?
A: 0.852

Q: And the relative viability (RERF-LC-KJ; first compound 0.04 µM)?
A: 0.838

Q: What about the relative viability (RERF-LC-KJ; first compound 0.1265 µM) of the same molecule?
A: 0.762

Q: What about the relative viability (RERF-LC-KJ; first compound 0.4 µM) of the same molecule?
A: 0.869

Q: And the relative viability (RERF-LC-KJ; first compound 1.265 µM)?
A: 0.82

Q: What about the relative viability (A549; first compound 0.04 µM) of the same molecule?
A: 0.728

Q: And the relative viability (A549; first compound 0.1265 µM)?
A: 0.787

Q: And the relative viability (A549; first compound 0.4 µM)?
A: 0.869

Q: And the relative viability (A549; first compound 1.265 µM)?
A: 0.499

Q: What about the relative viability (Calu-6; first compound 0.04 µM) of the same molecule?
A: 1.04

Q: And the relative viability (Calu-6; first compound 0.1265 µM)?
A: 0.978

Q: And the relative viability (Calu-6; first compound 0.4 µM)?
A: 0.825

Q: What about the relative viability (Calu-6; first compound 1.265 µM) of the same molecule?
A: 0.682

Q: And the relative viability (IA-LM; first compound 0.04 µM)?
A: 0.77

Q: What about the relative viability (IA-LM; first compound 0.1265 µM) of the same molecule?
A: 0.913

Q: And the relative viability (IA-LM; first compound 0.4 µM)?
A: 0.713

Q: What about the relative viability (IA-LM; first compound 1.265 µM) of the same molecule?
A: 0.737

Q: And the relative viability (NCI-H1651; first compound 0.04 µM)?
A: 0.977

Q: What about the relative viability (NCI-H1651; first compound 0.1265 µM) of the same molecule?
A: 1.02

Q: What about the relative viability (NCI-H1651; first compound 0.4 µM) of the same molecule?
A: 0.613

Q: What about the relative viability (NCI-H1651; first compound 1.265 µM) of the same molecule?
A: 0.713

Q: And the relative viability (NCI-H1703; first compound 0.1265 µM)?
A: 0.405

Q: What about the relative viability (NCI-H1703; first compound 0.4 µM) of the same molecule?
A: 0.395

Q: And the relative viability (NCI-H1703; first compound 1.265 µM)?
A: 0.332

Q: What about the relative viability (EBC-1; first compound 0.04 µM) of the same molecule?
A: 0.848

Q: What about the relative viability (EBC-1; first compound 0.1265 µM) of the same molecule?
A: 0.719

Q: What about the relative viability (EBC-1; first compound 0.4 µM) of the same molecule?
A: 0.939

Q: What about the relative viability (EBC-1; first compound 1.265 µM) of the same molecule?
A: 0.48

Q: And the relative viability (NCI-H1299; first compound 0.04 µM)?
A: 1

Q: What about the relative viability (NCI-H1299; first compound 0.1265 µM) of the same molecule?
A: 1.09

Q: What about the relative viability (NCI-H1299; first compound 0.4 µM) of the same molecule?
A: 1.05

Q: And the relative viability (NCI-H1299; first compound 1.265 µM)?
A: 0.957

Q: How did the relative viability (NCI-H520; first compound 0.01 µM) turn out when `NC(=O)Nc1cc(-c2cccc(F)c2)sc1C(=O)N[C@H]1CCCNC1` [AZD7762] + CC1(C)CCC(c2ccc(Cl)cc2)=C(CN2CCN(c3ccc(C(=O)NS(=O)(=O)c4ccc(N[C@H](CCN5CCOCC5)CSc5ccccc5)c(S(=O)(=O)C(F)(F)F)c4)cc3)CC2)C1 [Navitoclax] (partner 0.5 µM) was run?
A: 1.11

Q: And the relative viability (NCI-H520; first compound 0.03162 µM)?
A: 1.13

Q: What about the relative viability (NCI-H520; first compound 0.1 µM) of the same molecule?
A: 1.07

Q: And the relative viability (NCI-H520; first compound 0.3162 µM)?
A: 0.595

Q: What about the relative viability (NCI-H520; first compound 1 µM) of the same molecule?
A: 0.45

Q: And the relative viability (RERF-LC-KJ; first compound 0.01 µM)?
A: 1.15

Q: And the relative viability (RERF-LC-KJ; first compound 0.03162 µM)?
A: 0.913

Q: What about the relative viability (RERF-LC-KJ; first compound 0.1 µM) of the same molecule?
A: 1.12

Q: And the relative viability (RERF-LC-KJ; first compound 0.3162 µM)?
A: 1.21

Q: What about the relative viability (RERF-LC-KJ; first compound 1 µM) of the same molecule?
A: 0.878

Q: And the relative viability (A549; first compound 0.01 µM)?
A: 1.18

Q: And the relative viability (A549; first compound 0.03162 µM)?
A: 1.29

Q: What about the relative viability (A549; first compound 0.1 µM) of the same molecule?
A: 1.2

Q: And the relative viability (A549; first compound 0.3162 µM)?
A: 0.898

Q: What about the relative viability (A549; first compound 1 µM) of the same molecule?
A: 0.269

Q: What about the relative viability (Calu-6; first compound 0.01 µM) of the same molecule?
A: 0.813

Q: What about the relative viability (Calu-6; first compound 0.03162 µM) of the same molecule?
A: 0.812

Q: What about the relative viability (Calu-6; first compound 0.1 µM) of the same molecule?
A: 0.531

Q: What about the relative viability (Calu-6; first compound 0.3162 µM) of the same molecule?
A: 0.129

Q: What about the relative viability (Calu-6; first compound 1 µM) of the same molecule?
A: 0.091

Q: What about the relative viability (IA-LM; first compound 0.01 µM) of the same molecule?
A: 0.992

Q: What about the relative viability (IA-LM; first compound 0.03162 µM) of the same molecule?
A: 0.858

Q: What about the relative viability (IA-LM; first compound 0.1 µM) of the same molecule?
A: 0.915

Q: What about the relative viability (IA-LM; first compound 0.3162 µM) of the same molecule?
A: 0.985

Q: What about the relative viability (IA-LM; first compound 1 µM) of the same molecule?
A: 0.187

Q: And the relative viability (NCI-H1651; first compound 0.01 µM)?
A: 1.16

Q: And the relative viability (NCI-H1651; first compound 0.03162 µM)?
A: 0.964

Q: And the relative viability (NCI-H1651; first compound 0.1 µM)?
A: 0.922

Q: And the relative viability (NCI-H1651; first compound 0.3162 µM)?
A: 0.855

Q: And the relative viability (NCI-H1651; first compound 1 µM)?
A: 0.283

Q: And the relative viability (NCI-H1703; first compound 0.01 µM)?
A: 0.673

Q: What about the relative viability (NCI-H1703; first compound 0.03162 µM) of the same molecule?
A: 0.286

Q: And the relative viability (NCI-H1703; first compound 0.1 µM)?
A: 0.253

Q: What about the relative viability (NCI-H1703; first compound 0.3162 µM) of the same molecule?
A: 0.178

Q: And the relative viability (NCI-H1703; first compound 1 µM)?
A: 0.114

Q: And the relative viability (EBC-1; first compound 0.01 µM)?
A: 0.524

Q: And the relative viability (EBC-1; first compound 0.03162 µM)?
A: 0.427

Q: And the relative viability (EBC-1; first compound 0.1 µM)?
A: 0.292

Q: And the relative viability (EBC-1; first compound 0.3162 µM)?
A: 0.299

Q: What about the relative viability (EBC-1; first compound 1 µM) of the same molecule?
A: 0.182

Q: What about the relative viability (NCI-H1299; first compound 0.01 µM) of the same molecule?
A: 1.06

Q: What about the relative viability (NCI-H1299; first compound 0.03162 µM) of the same molecule?
A: 1.06

Q: And the relative viability (NCI-H1299; first compound 0.1 µM)?
A: 1.09

Q: And the relative viability (NCI-H1299; first compound 0.3162 µM)?
A: 1.08

Q: What about the relative viability (NCI-H1299; first compound 1 µM) of the same molecule?
A: 0.976

Q: Which results are given for `NC(=O)Nc1cc(-c2cccc(F)c2)sc1C(=O)N[C@H]1CCCNC1` [AZD7762] + CC(C)C[C@H](NC(=O)[C@H](Cc1ccccc1)NC(=O)c1cnccn1)B(O)O [Bortezomib] (partner 0.002 µM)?
A: relative viability (NCI-H520; first compound 0.01 µM): 0.471; relative viability (NCI-H520; first compound 0.03162 µM): 0.659; relative viability (NCI-H520; first compound 0.1 µM): 0.525; relative viability (NCI-H520; first compound 0.3162 µM): 0.27; relative viability (NCI-H520; first compound 1 µM): 0.289; relative viability (RERF-LC-KJ; first compound 0.01 µM): 1.16; relative viability (RERF-LC-KJ; first compound 0.03162 µM): 1.11; relative viability (RERF-LC-KJ; first compound 0.1 µM): 1.11; relative viability (RERF-LC-KJ; first compound 0.3162 µM): 1.11; relative viability (RERF-LC-KJ; first compound 1 µM): 1.14; relative viability (Calu-6; first compound 0.01 µM): 1.03; relative viability (Calu-6; first compound 0.03162 µM): 0.96; relative viability (Calu-6; first compound 0.1 µM): 0.782; relative viability (Calu-6; first compound 0.3162 µM): 0.245; relative viability (Calu-6; first compound 1 µM): 0.152; relative viability (IA-LM; first compound 0.01 µM): 1.05; relative viability (IA-LM; first compound 0.03162 µM): 0.851; relative viability (IA-LM; first compound 0.1 µM): 1.22; relative viability (IA-LM; first compound 0.3162 µM): 1.14; relative viability (IA-LM; first compound 1 µM): 0.253; relative viability (NCI-H1651; first compound 0.01 µM): 0.945; relative viability (NCI-H1651; first compound 0.03162 µM): 0.932; relative viability (NCI-H1651; first compound 0.1 µM): 1.01; relative viability (NCI-H1651; first compound 0.3162 µM): 0.963; relative viability (NCI-H1651; first compound 1 µM): 0.686; relative viability (NCI-H1703; first compound 0.01 µM): 0.409; relative viability (NCI-H1703; first compound 0.03162 µM): 0.182; relative viability (NCI-H1703; first compound 0.1 µM): 0.167; relative viability (NCI-H1703; first compound 0.3162 µM): 0.176; relative viability (NCI-H1703; first compound 1 µM): 0.124; relative viability (EBC-1; first compound 0.01 µM): 0.633; relative viability (EBC-1; first compound 0.03162 µM): 0.508; relative viability (EBC-1; first compound 0.1 µM): 0.566; relative viability (EBC-1; first compound 0.3162 µM): 0.493; relative viability (EBC-1; first compound 1 µM): 0.309; relative viability (NCI-H1299; first compound 0.01 µM): 1.07; relative viability (NCI-H1299; first compound 0.03162 µM): 1.04; relative viability (NCI-H1299; first compound 0.1 µM): 1.04; relative viability (NCI-H1299; first compound 0.3162 µM): 1.04; relative viability (NCI-H1299; first compound 1 µM): 0.964
